Values quoted from earlier work in article PMC9710334 (BMJ Open Gastroenterology, 2022).

Columns and labels:
patients with PBC = conditions: approximately ref 1 3; cited from earlier work
treated patients = treated patients ref 37 38; cited from earlier work

Molecule: C[C@H](CCC(=O)O)[C@H]1CC[C@H]2[C@@H]3[C@@H](O)C[C@@H]4C[C@H](O)CC[C@]4(C)[C@H]3CC[C@]12C [UDCA, ursodeoxycholic acid]
- patients without an optimal biochemical response (patients with PBC): 30%–40%

B1: vantictumab: Wnt pathway inhibitor (antibody, chains of the INN, looked up, V domains shown)
VH: EVQLVESGGGLVQPGGSLRLSCAASGFTFSHYTLSWVRQAPGKGLEWVSVISGDGSYTYYADSVKGRFTISSDNSKNTLYLQMNSLRAEDTAVYYCARNFIKYVFANWGQGTLVTVSS
VL: DIELTQPPSVSVAPGQTARISCSGDNIGSFYVHWYQQKPGQAPVLVIYDKSNRPSGIPERFSGSNSGNTATLTISGTQAEDEADYYCQSYANTLSLVFGGGTKLTVL
- risk for fragility fractures (treated patients): increased risk for fragility fractures
